According to PubChem BioAssay (NCI):
Several values for one entry are separate records, joined by “and”; a condition that tells them apart may be missing. Equal entries are not always repeated.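 Growth conditions: 96-well plates. Treatment: test compound, 48 hours, 5 concentrations. Analysis: linear interpolation between bracketing concentrations; unreached endpoints set to highest concentration. GI50 marks 50% less growth. TGI: concentration producing complete growth inhibition.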

Legend:
Experiment in all cases: NCI anticancer screen, dose series, 48 h
MOLT-4 leukemia = tested on: MOLT-4 leukemia
OVCAR-3 ovarian = tested on: OVCAR-3 ovarian
HS 578T breast = tested on: HS 578T breast
HOP-18 NSCLC = tested on: HOP-18 NSCLC
MDA-MB-435 = tested on: MDA-MB-435
NCI-H522 lung = tested on: NCI-H522 lung
DLD-1 colon = tested on: DLD-1 colon
NCI-H460 lung = tested on: NCI-H460 lung
RXF 393 renal = tested on: RXF 393 renal
BT-549 breast = tested on: BT-549 breast
DMS 273 small cell lung = tested on: DMS 273 small cell lung
SNB-75 CNS = tested on: SNB-75 CNS
SK-MEL-5 melanoma = tested on: SK-MEL-5 melanoma
A498 renal = tested on: A498 renal
RPMI-8226 leukemia = tested on: RPMI-8226 leukemia
IGROV1 ovarian = tested on: IGROV1 ovarian
A549 NSCLC = tested on: A549 NSCLC
HCC-2998 colon = tested on: HCC-2998 colon
OVCAR-5 ovarian = tested on: OVCAR-5 ovarian
HOP-92 NSCLC = tested on: HOP-92 NSCLC
NCI-H226 lung = tested on: NCI-H226 lung
M19-MEL melanoma = tested on: M19-MEL melanoma
SNB-78 CNS = tested on: SNB-78 CNS
SN12C renal = tested on: SN12C renal
CAKI-1 renal = tested on: CAKI-1 renal
SF-539 CNS = tested on: SF-539 CNS
DU-145 prostate = tested on: DU-145 prostate
HCT-116 colon = tested on: HCT-116 colon
HOP-62 NSCLC = tested on: HOP-62 NSCLC
LXFL 529 NSCLC = tested on: LXFL 529 NSCLC
COLO 205 colon = tested on: COLO 205 colon
TK-10 renal = tested on: TK-10 renal
PC-3 prostate = tested on: PC-3 prostate
HT29 colon = tested on: HT29 colon
K-562 leukemia = tested on: K-562 leukemia
UACC-62 melanoma = tested on: UACC-62 melanoma
SK-MEL-2 melanoma = tested on: SK-MEL-2 melanoma
EKVX NSCLC = tested on: EKVX NSCLC
HCT-15 colon = tested on: HCT-15 colon
XF 498 CNS = tested on: XF 498 CNS
SK-MEL-28 melanoma = tested on: SK-MEL-28 melanoma
SK-OV-3 ovarian = tested on: SK-OV-3 ovarian
SNB-19 CNS = tested on: SNB-19 CNS
KM20L2 colon = tested on: KM20L2 colon
SR leukemia = tested on: SR leukemia
NCI-H23 lung = tested on: NCI-H23 lung
U251 CNS = tested on: U251 CNS
ACHN renal = tested on: ACHN renal
SF-295 CNS = tested on: SF-295 CNS
M14 melanoma = tested on: M14 melanoma
OVCAR-4 ovarian = tested on: OVCAR-4 ovarian
MALME-3M melanoma = tested on: MALME-3M melanoma
UO-31 renal = tested on: UO-31 renal
786-0 renal = tested on: 786-0 renal
SW-620 colon = tested on: SW-620 colon
DMS 114 small cell lung = tested on: DMS 114 small cell lung
OVCAR-8 ovarian = tested on: OVCAR-8 ovarian
UACC-257 melanoma = tested on: UACC-257 melanoma
LOX IMVI melanoma = tested on: LOX IMVI melanoma
HL-60(TB) leukemia = tested on: HL-60(TB) leukemia

Structure (SMILES): O=C1C=CC(=O)c2c(O)c(N3CCN(CCOCCO)CC3)c(Cl)c(O)c21
- GI50 (MOLT-4 leukemia): 97 nM and 33.1 nM
- TGI (MOLT-4 leukemia): 837 nM and 175 nM
- TGI (OVCAR-3 ovarian): 2.14 µM [middle of 4 runs]
- GI50 (HS 578T breast): 218 nM
- TGI (HOP-18 NSCLC): 2730 nM
- GI50 (MDA-MB-435): 197 nM
- TGI (MDA-MB-435): 907 nM and 486 nM
- GI50 (NCI-H522 lung): 313 nM
- TGI (NCI-H522 lung): 1190 nM and 352 nM
- TGI (DLD-1 colon): 401 nM
- GI50 (NCI-H460 lung): 1570 nM
- GI50 (RXF 393 renal): 192 nM and 344 nM and 1350 nM
- TGI (RXF 393 renal): 422 nM and 1100 nM and 2960 nM
- GI50 (BT-549 breast): 722 nM and 422 nM and 2270 nM
- TGI (BT-549 breast): 2110 nM and 1490 nM and 3910 nM
- TGI (DMS 273 small cell lung): 2250 nM
- TGI (SNB-75 CNS): 3.16 µM [middle of 4 runs]
- GI50 (SK-MEL-5 melanoma): 688 nM [middle of 4 runs]
- TGI (SK-MEL-5 melanoma): 1.81 µM [middle of 4 runs]
- GI50 (A498 renal): 2.57 µM [middle of 4 runs]
- TGI (A498 renal): 5.65 µM [middle of 4 runs]
- GI50 (RPMI-8226 leukemia): 277 nM [middle of 4 runs]
- TGI (RPMI-8226 leukemia): 1.01 µM [middle of 4 runs]
- GI50 (IGROV1 ovarian): 1.64 µM [middle of 4 runs]
- TGI (IGROV1 ovarian): 3.2 µM [middle of 4 runs]
- GI50 (A549 NSCLC): 2390 nM
- TGI (A549 NSCLC): 7.87 µM [middle of 4 runs]
- GI50 (HCC-2998 colon): 2270 nM
- GI50 (OVCAR-5 ovarian): 1260 nM
- TGI (OVCAR-5 ovarian): 3.32 µM [middle of 4 runs]
- TGI (HOP-92 NSCLC): 450 nM and 493 nM and 1120 nM
- GI50 (NCI-H226 lung): 2690 nM
- TGI (NCI-H226 lung): 4.68 µM [middle of 4 runs]
- TGI (M19-MEL melanoma): 1080 nM
- TGI (SNB-78 CNS): 1350 nM
- TGI (SN12C renal): 2.07 µM [middle of 4 runs]
- GI50 (CAKI-1 renal): 456 nM [middle of 4 runs]
- TGI (SF-539 CNS): 3.31 µM [middle of 4 runs]
- TGI (DU-145 prostate): 3.31 µM [middle of 4 runs]
- GI50 (HCT-116 colon): 333 nM [middle of 4 runs]
- TGI (HCT-116 colon): 801 nM [middle of 4 runs]
- GI50 (HOP-62 NSCLC): 2070 nM and 983 nM and 2640 nM
- TGI (HOP-62 NSCLC): 3840 nM and 3600 nM and 6670 nM
- TGI (LXFL 529 NSCLC): 450 nM
- GI50 (COLO 205 colon): 156 nM [middle of 4 runs]
- TGI (TK-10 renal): 1.56 µM [middle of 4 runs]
- GI50 (PC-3 prostate): 1.67 µM [middle of 4 runs]
- TGI (PC-3 prostate): 3.23 µM [middle of 4 runs]
- GI50 (HT29 colon): 420 nM and 592 nM and 288 nM
- TGI (HT29 colon): 1660 nM and 1610 nM and 1070 nM
- GI50 (K-562 leukemia): 265 nM and 43.9 nM
- TGI (K-562 leukemia): > 100000 nM
- TGI (UACC-62 melanoma): 3.01 µM [middle of 4 runs]
- GI50 (SK-MEL-2 melanoma): 2300 nM
- TGI (SK-MEL-2 melanoma): 4510 nM and 1110 nM
- GI50 (EKVX NSCLC): 1.9 µM [middle of 4 runs]
- TGI (EKVX NSCLC): 4.4 µM [middle of 4 runs]
- TGI (HCT-15 colon): 817 nM [middle of 4 runs]
- TGI (XF 498 CNS): 1880 nM
- TGI (SK-MEL-28 melanoma): 2.89 µM [middle of 4 runs]
- GI50 (SK-OV-3 ovarian): 4.59 µM [middle of 4 runs]
- TGI (SK-OV-3 ovarian): 13500 nM and 7900 nM and 19900 nM
- GI50 (SNB-19 CNS): 13.4 µM [middle of 4 runs]
- TGI (SNB-19 CNS): 26500 nM and 18400 nM and 26100 nM
- TGI (KM20L2 colon): 2070 nM
- GI50 (SR leukemia): 104 nM and 38.2 nM and 77.1 nM
- TGI (SR leukemia): 430 nM and 614 nM and 321 nM

Structure (SMILES): C[C@@H]1C[C@]2(C[C@@H](C)C3[C@@H](CC4(C)[C@@H]5CCC6C(C)(C)OC(=O)C=C[C@]67C[C@@]5(CC[C@]34C)OO7)O2)OC1=O (some centres undefined)
- TGI (OVCAR-3 ovarian): 66300 nM
- TGI (NCI-H23 lung): > 100000 nM
- TGI (U251 CNS): > 100000 nM
- TGI (HOP-18 NSCLC): > 100000 nM
- TGI (ACHN renal): > 100000 nM
- TGI (NCI-H522 lung): 90300 nM
- TGI (DLD-1 colon): > 100000 nM
- TGI (NCI-H460 lung): > 100000 nM
- TGI (RXF 393 renal): > 100000 nM
- TGI (SF-295 CNS): > 100000 nM
- TGI (DMS 273 small cell lung): > 100000 nM
- TGI (SNB-75 CNS): 56900 nM
- TGI (M14 melanoma): > 100000 nM
- TGI (SK-MEL-5 melanoma): > 100000 nM
- TGI (OVCAR-4 ovarian): 64400 nM
- TGI (RPMI-8226 leukemia): > 100000 nM
- TGI (IGROV1 ovarian): > 100000 nM
- TGI (A549 NSCLC): > 100000 nM
- TGI (HCC-2998 colon): > 100000 nM
- TGI (OVCAR-5 ovarian): > 100000 nM
- TGI (MALME-3M melanoma): > 100000 nM
- TGI (NCI-H226 lung): > 100000 nM
- TGI (SNB-78 CNS): > 100000 nM
- TGI (SN12C renal): > 100000 nM
- TGI (UO-31 renal): > 100000 nM
- TGI (SF-539 CNS): > 100000 nM
- TGI (786-0 renal): > 100000 nM
- TGI (HCT-116 colon): > 100000 nM
- TGI (LXFL 529 NSCLC): > 100000 nM
- TGI (COLO 205 colon): > 100000 nM
- TGI (TK-10 renal): > 100000 nM
- TGI (HT29 colon): > 100000 nM
- TGI (K-562 leukemia): > 100000 nM
- TGI (UACC-62 melanoma): > 100000 nM
- TGI (SW-620 colon): > 100000 nM
- TGI (SK-MEL-2 melanoma): > 100000 nM
- TGI (DMS 114 small cell lung): > 100000 nM
- TGI (HCT-15 colon): > 100000 nM
- TGI (OVCAR-8 ovarian): > 100000 nM
- TGI (UACC-257 melanoma): > 100000 nM
- TGI (XF 498 CNS): 73900 nM
- TGI (SK-MEL-28 melanoma): > 100000 nM
- TGI (LOX IMVI melanoma): > 100000 nM
- TGI (SK-OV-3 ovarian): > 100000 nM
- TGI (HL-60(TB) leukemia): > 100000 nM
- TGI (SNB-19 CNS): > 100000 nM
- TGI (SR leukemia): > 100000 nM
